Experimental data published in US8404857B2, “α-crystalline form of carbabenzpyride” (Farmak International Holding GmbH, priority 2010, dated 2013).
Read-outs that look alike come from different tables or passages of the source. Marks after values point to notes of the source that are not given here.

Key:
Adenovirus 5 = test: Virus yield reduction assay, Adenovirus 5; type: cell-based; settings: A549 cells, MOI 0.05, 4 days
[1] = tested on: Influenza A strain California (H3N2); type: cell-based; settings: Table 9, NBL-2 cells, MOI 0.001, 24 h
Adenovirus 3 = test: Virus yield reduction assay, Adenovirus 3; type: cell-based; settings: A549 cells, MOI 0.05, 4 days
Echo virus 11 = test: Virus yield reduction assay, Echo virus 11; type: cell-based; settings: HFF, MOI 0.005, 3 days
Coxsackie virus A9 = test: Virus yield reduction assay, Coxsackie virus A9; type: cell-based; settings: HFF, MOI 0.005, 3 days
[2] = tested on: Human cytomegalovirus Hi91; test: Virus yield reduction assay, Human cytomegalovirus Hi91; type: cell-based; settings: HFF, MOI 0.02, 5 days
blood monocytes = test: Blood monocytes level (complete blood counts) of volunteers; type: in vivo, human; settings: throughout the study; control group decreased by V3 and V4
Source text: The results of investigating FAV00A effect of body interferon status correlate with the data collected during statistical processing of volunteers' complete blood counts. […] This fact is indicative of limitation of viral infection immunosuppressive effect on cellular immunity responses in FAV00A treatment group.

Enterovirus 71 = test: Virus yield reduction assay, Enterovirus 71; type: cell-based; settings: HFF, MOI 0.1, 3 days
[3] = tested on: Human cytomegalovirus AD169; test: Virus yield reduction assay, Human cytomegalovirus AD169; type: cell-based; settings: HFF, MOI 0.02, 5 days
[4] = tested on: Influenza A strain Victoria (H3N2); test: Virus yield reduction assay, Influenza A Victoria (H3N2); type: cell-based, Influenza A H3N2 (strain Victoria/3/75); settings: Table 10, NBL-2 cells, MOI 0.01, 24 h
[5] = tested on: Influenza A strain New Caledonia (H1N1); type: cell-based; settings: NBL-2 cells, MOI 0.01, 24 h
IFN-α = test: Circulating IFN-α levels in blood serum of volunteers with acute respiratory infection; type: in vivo, human; settings: for IFN-α Mean value / IFN-α Median: blood serum
Source text: (§1) Increase of IFN-α levels was also observed in patients treated with Placebo, yet, this growth was less intensive than in FAV00A group (Table 22).

Echo virus 30 = test: Virus yield reduction assay, Echo virus 30; type: cell-based; settings: HFF, MOI 0.01, 3 days
Human metapneumovirus = test: Virus yield reduction assay, Human metapneumovirus; type: cell-based; settings: MK2 cells, MOI 0.1, 8 days
IFN-γ = test: Circulating IFN-γ levels in blood serum of volunteers with acute respiratory infection; type: in vivo, human; settings: for IFN-γ Mean value / IFN-γ Median: blood serum
Source text: as §1

[6] = Table 8, 400 μg with 45 minutes pre-incubation
[7] = Table 8, 400 μg without pre-incubation
[8] = 7-th day of the drug intake (Visit V3)
[9] = Visit V3 (7-th day of drug intake)

C[n+]1ccc(C(=O)NCc2ccccc2)cc1 [FAV00A, carbabenzpyride]
Virus titre (Adenovirus 5; FAV00A 12.5 μg/ml): 7.0 × 10^8 TCID50/ml
% titre reduction in comparison to virus control (Adenovirus 5; FAV00A 25 μg/ml): (43.7%)
Virus titre (Adenovirus 5; FAV00A 25 μg/ml): 3.0 × 10^8 TCID50/ml
% titre reduction in comparison to virus control (Adenovirus 5; FAV00A 50 μg/ml): (68.4%)^1
Virus titre (Adenovirus 5; FAV00A 50 μg/ml): 1.7 × 10^8 TCID50/ml
% virus yield relative to control ([1]; 400 μg): 76%
Fold reduction ([1]; 400 μg): 1.32
Titer (TCFD50/ml) ([1]; 400 μg): 2.25 * 10^4 TCFD50/ml
% virus yield relative to control ([1]; 800 μg): 61%
Fold reduction ([1]; 800 μg): 1.64
Titer (TCFD50/ml) ([1]; 800 μg): 1.80 * 10^4 TCFD50/ml
Virus titre (Adenovirus 3; FAV00A 12.5 μg/ml): 7.2 × 10^7 TCID50/ml
% titre reduction in comparison to virus control (Adenovirus 3; FAV00A 25 μg/ml): (11.3%)
Virus titre (Adenovirus 3; FAV00A 25 μg/ml): 5.4 × 10^7 TCID50/ml
% titre reduction in comparison to virus control (Adenovirus 3; FAV00A 50 μg/ml): (43.5%)^1
Virus titre (Adenovirus 3; FAV00A 50 μg/ml): 3.4 × 10^7 TCID50/ml
% titre reduction in comparison to virus control (Echo virus 11; FAV00A 62.5 μg/ml): (41.8%)
Virus titre (Echo virus 11; FAV00A 62.5 μg/ml): 1.8 × 10^8 TCID50/ml
% titre reduction in comparison to virus control (Echo virus 11; FAV00A 125 μg/ml): (36.4%)
Virus titre (Echo virus 11; FAV00A 125 μg/ml): 1.9 × 10^8 TCID50/ml
% titre reduction in comparison to virus control (Echo virus 11; FAV00A 250 μg/ml): (79.9%)^1
Virus titre (Echo virus 11; FAV00A 250 μg/ml): 6.1 × 10^7 TCID50/ml
% titre reduction in comparison to virus control (Coxsackie virus A9; FAV00A 12.5 μg/ml): (45.3%)
Virus titre (Coxsackie virus A9; FAV00A 12.5 μg/ml): 1.7 × 10^4 TCID50/ml
% titre reduction in comparison to virus control (Coxsackie virus A9; FAV00A 25 μg/ml): (45.7%)
Virus titre (Coxsackie virus A9; FAV00A 25 μg/ml): 1.7 × 10^5 TCID50/ml
% titre reduction in comparison to virus control (Coxsackie virus A9; FAV00A 50 μg/ml): (65.3%)^1
Virus titre (Coxsackie virus A9; FAV00A 50 μg/ml): 1.1 × 10^5 TCID50/ml
% titre reduction in comparison to virus control ([2]; FAV00A 125 μg/ml): (24.9%)
% titre reduction in comparison to virus control ([2]; FAV00A 250 μg/ml): (86.0%)
Virus titre ([2]; FAV00A 250 μg/ml): 5.2 × 10^3 TCID50/ml
% titre reduction in comparison to virus control ([2]; FAV00A 500 μg/ml): (93.5%)^1
Virus titre ([2]; FAV00A 500 μg/ml): 2.4 × 10^3 TCID50/ml
Change of blood monocytes level (blood monocytes): No considerable decrease
Virus titre (Enterovirus 71; FAV00A 50 μg/ml): 5.4 × 10^3 TCID50/ml
% titre reduction in comparison to virus control (Enterovirus 71; FAV00A 100 μg/ml): (83.6%)
Virus titre (Enterovirus 71; FAV00A 100 μg/ml): 6.5 × 10^2 TCID50/ml
% titre reduction in comparison to virus control (Enterovirus 71; FAV00A 200 μg/ml): (97.6%)^1
Virus titre (Enterovirus 71; FAV00A 200 μg/ml): 9.6 × 10^1 TCID50/ml
Virus titre ([3]; FAV00A 125 μg/ml): 2.2 × 10^5 TCID50/ml
Virus titre ([3]; FAV00A 250 μg/ml): 1.0 × 10^5 TCID50/ml
% titre reduction in comparison to virus control ([3]; FAV00A 500 μg/ml): (41.1%)^1
Virus titre ([3]; FAV00A 500 μg/ml): 5.3 × 10^4 TCID50/ml
% virus yield relative to control ([4]; 400 μg): 41%
Fold reduction ([4]; 400 μg): 2.44
Titer (TCID50/ml) ([4]; 400 μg): 1.20 * 10^6 TCID50/ml
% virus yield relative to control ([4]; 800 μg): 27%
Fold reduction ([4]; 800 μg): 3.70
Titer (TCID50/ml) ([4]; 800 μg): 7.75 * 10^5 TCID50/ml
% virus yield relative to control [5, 6]: 52%
Fold reduction [5, 6]: 1.92
Titer (TCID50/ml) [5, 6]: 1.10 * 10^6 TCID50/ml
% virus yield relative to control [5, 7]: 31%
Fold reduction [5, 7]: 3.23
Titer (TCID50/ml) [5, 7]: 6.56 * 10^5 TCID50/ml
% virus yield relative to control ([5]; Table 11a, 400 μg): 32%
Fold reduction ([5]; Table 11a, 400 μg): 3.13
Titer (TCID50/ml) ([5]; Table 11a, 400 μg): 6.81 * 10^3 TCID50/ml
% virus yield relative to control ([5]; Table 12b, 800 μg): 28%
Fold reduction ([5]; Table 12b, 800 μg): 3.57
Titer (TCID50/ml) ([5]; Table 12b, 800 μg): 2.70 * 10^6 TCID50/ml
IFN-α levels versus the baseline values and Placebo group (IFN-α; [8]): Significant elevation
IFN-α Mean value (IFN-α; Visit V1 (baseline)): 22.290
IFN-α Median (IFN-α; Visit V1 (baseline)): 23.7
IFN-α Mean value (IFN-α; [9]): 37.563*
IFN-α Median (IFN-α; [9]): 37.4*
IFN-α Mean value (IFN-α; Visit V4): 30.072*
IFN-α Median (IFN-α; Visit V4): 30.55*
Virus titre (Echo virus 30; FAV00A 25 μg/ml): 1.2 × 10^8 TCID50/ml
% titre reduction in comparison to virus control (Echo virus 30; FAV00A 50 μg/ml): (17.0%)
Virus titre (Echo virus 30; FAV00A 50 μg/ml): 7.9 × 10^7 TCID50/ml
% titre reduction in comparison to virus control (Echo virus 30; FAV00A 100 μg/ml): (68.3%)^1
Virus titre (Echo virus 30; FAV00A 100 μg/ml): 3.0 × 10^7 TCID50/ml
% titre reduction in comparison to virus control (Human metapneumovirus; FAV00A 125 μg/ml): (88.5%)
Virus titre (Human metapneumovirus; FAV00A 125 μg/ml): 4.0 × 10^4 TCID50/ml
Virus titre (Human metapneumovirus; FAV00A 250 μg/ml): 5.4 × 10^4 TCID50/ml
% titre reduction in comparison to virus control (Human metapneumovirus; FAV00A 500 μg/ml): (95.6%)^1
Virus titre (Human metapneumovirus; FAV00A 500 μg/ml): 2.0 × 10^3 TCID50/ml
IFN-γ levels versus the baseline values and Placebo group (IFN-γ; [8]): Significant elevation
IFN-γ Mean value (IFN-γ; Visit V1 (baseline)): 33.168
IFN-γ Median (IFN-γ; Visit V1 (baseline)): 33.25
IFN-γ Mean value (IFN-γ; [9]): 44.670*
IFN-γ Median (IFN-γ; [9]): 45.85*
IFN-γ Mean value (IFN-γ; Visit V4): 41.313*
IFN-γ Median (IFN-γ; Visit V4): 40.1*

CC(=O)N[C@H]1[C@H]([C@H](O)[C@H](O)CO)OC(C(=O)O)=C[C@@H]1N=C(N)N [Zanamivir, reference compound]
% virus yield relative to control ([1]; 100 ng): 0.4%
Fold reduction ([1]; 100 ng): 250
Titer (TCFD50/ml) ([1]; 100 ng): 1.18 * 10^2 TCFD50/ml
% virus yield relative to control ([4]; 100 ng): 0.02%
Fold reduction ([4]; 100 ng): 5000
Titer (TCID50/ml) ([4]; 100 ng): 7.05 * 10^2 TCID50/ml
% virus yield relative to control ([5]; Table 8, 10 ng): 23%
Fold reduction ([5]; Table 8, 10 ng): 4.35
Titer (TCID50/ml) ([5]; Table 8, 10 ng): 4.85 * 10^5 TCID50/ml
% virus yield relative to control ([5]; Table 11a, 100 ng): 3%
Fold reduction ([5]; Table 11a, 100 ng): 33.33
Titer (TCID50/ml) ([5]; Table 11a, 100 ng): 7.00 * 10^4 TCID50/ml
% virus yield relative to control ([5]; Table 12b, 100 ng): 15%
Fold reduction ([5]; Table 12b, 100 ng): 6.67
Titer (TCID50/ml) ([5]; Table 12b, 100 ng): 1.42 * 10^6 TCID50/ml
